# PubChem BioAssay (NCI)
#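 All cell lines were grown in 96-well plates and treated with compound for 48 hours. GI50: concentration for 50% inhibition of growth. TGI: concentration producing complete growth inhibition.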
# What was measured:
# Test in all cases: DTP human tumour cell line panel, 48 h
# CAKI-1 renal = tested on: CAKI-1 renal
# SK-MEL-2 melanoma = tested on: SK-MEL-2 melanoma
# SF-268 CNS = tested on: SF-268 CNS
# OVCAR-8 ovarian = tested on: OVCAR-8 ovarian
# 786-0 renal = tested on: 786-0 renal
# KM12 colon = tested on: KM12 colon
# NCI-H226 lung = tested on: NCI-H226 lung
# NCI-H23 lung = tested on: NCI-H23 lung
# SN12C renal = tested on: SN12C renal
# T-47D breast = tested on: T-47D breast
Structure (SMILES),TGI (CAKI-1 renal) [µM],TGI (SK-MEL-2 melanoma) [µM],TGI (SF-268 CNS) [µM],TGI (OVCAR-8 ovarian) [µM],TGI (786-0 renal) [µM],TGI (KM12 colon) [µM],TGI (NCI-H226 lung) [µM],TGI (NCI-H23 lung) [µM],TGI (SN12C renal) [µM],GI50 (CAKI-1 renal) [µM],GI50 (SK-MEL-2 melanoma) [µM],GI50 (SF-268 CNS) [µM],GI50 (OVCAR-8 ovarian) [µM],GI50 (786-0 renal) [µM],GI50 (KM12 colon) [µM],GI50 (NCI-H226 lung) [µM],GI50 (NCI-H23 lung) [µM],GI50 (SN12C renal) [µM],GI50 (T-47D breast) [µM],TGI (T-47D breast) [µM]
O=C(Cc1nc2ccccc2s1)Nc1cccc(C(F)(F)F)c1,31.6,33.8,29.7,38.1,27.2,30.5,44.7,30.2,29.7,–,–,–,–,–,–,–,–,–,–,–
O=[N+]([O-])c1c(Br)sc(Br)c1[N+](=O)[O-],3.63,10.3,25,7.08,3.25,22,13.3,28.9,10.9,1.83,2.79,12.5,2.39,1.73,10.1,3.18,11.3,3.12,1.84,4.38
NCCCNCCCCN(CCCN)/[N+]([O-])=N\O,> 100,> 100,> 100,> 100,> 100,> 100,> 100,> 100,> 100,–,–,–,–,–,–,–,–,–,–,–
COc1ccc(/C=c2\sc3n(c2=O)C(N)=C(C#N)C(c2ccc(OC)cc2)C=3c2nc3ccccc3[nH]2)cc1 (stereo not given),42.9,61.5,> 100,–,> 100,31,49.2,20.2,> 100,–,–,–,–,–,–,–,–,–,–,–
Clc1ccc(C2SCc3nc4ccccc4n32)cc1Cl (stereo not given),27,35.5,37.6,26.9,27.3,27,41.3,27.5,26,–,–,–,–,–,–,–,–,–,–,–
COc1cc(COC(=O)N(CC(=O)O)c2ccccc2)c([N+](=O)[O-])cc1OC,–,–,> 100,> 100,> 100,> 100,> 100,> 100,> 100,–,–,–,–,–,–,–,–,–,–,> 100
CCCCCCCCCCCCCP(=O)(O)OCC,–,> 100,> 100,> 100,> 100,> 100,> 100,> 100,> 100,–,–,–,–,–,–,–,–,–,–,–
CN(C)c1ccc(Nc2cc(-c3cccc(OC(F)(F)F)c3)nc3ccc(N4CCCC4)cc23)cc1,3.57,26.5,3.54,–,3.24,–,15.4,4.39,3.5,1.75,12.4,1.85,–,1.71,–,3.49,2.06,1.78,–,–
C=C(Br)N(CC)CC,> 100,> 100,> 100,> 100,> 100,> 100,> 100,> 100,> 100,–,–,–,–,–,–,–,–,–,–,–
c1csc(-c2cc(-c3cccs3)c(-c3cccs3)s2)c1,> 100,–,> 100,> 100,> 100,> 100,> 100,> 100,> 100,–,–,–,–,–,–,–,–,–,–,77
C1=CC=C2NCCCNC3=CC=CC=CC3=NCCCN=C2C=C1,–,> 100,> 100,> 100,> 100,> 100,> 100,–,> 100,–,–,–,–,–,–,–,–,–,–,–
O=C(Nc1ccccc1)NS(=O)(=O)c1ccc(-n2nc3c(c2-c2ccc(Cl)cc2)Cc2ccccc2-3)cc1,29.2,91.8,88.2,86.8,> 100,55.1,61.9,–,66.6,4.37,27.4,14.8,24.7,27.5,16,15.5,–,23.2,49.9,> 100
COC(=O)CCC(=O)CC(=O)C(=O)Nc1c(Cl)cc([N+](=O)[O-])cc1Cl,> 100,> 100,> 100,> 100,> 100,> 100,> 100,> 100,> 100,–,–,–,–,–,–,–,–,–,–,–
CCc1cccc(C(C)C)c1NC(=O)C(=O)C(CC(=O)Nc1ccc(Cl)c(Cl)c1)C(=O)OC (stereo not given),> 100,> 100,> 100,> 100,> 100,> 100,> 100,> 100,> 100,–,–,–,–,–,–,–,–,–,–,–
C[C@]1(CO)CCC[C@@]2(C)C1CC[C@H]1CC3C[C@]12CC[C@]3(C)O (stereo not given in full),> 100,–,> 100,> 100,> 100,> 100,> 100,> 100,> 100,–,–,–,–,–,–,–,–,–,–,–
Cc1cccc2c(=O)c3c(sc12)c(NCCNCCO)nc1ccccc13,2.56,3.44,3.15,–,3.51,3.19,3.32,3.04,3.05,1.25,1.78,1.54,–,1.83,1.64,1.56,1.58,1.54,1.33,3.13
CCOC(=O)C1=C(C)N(c2ccc(C)cc2)C2=C(C(=O)N(c3ccccc3)C2c2ccccc2)C1c1ccccc1 (stereo not given),–,> 25,> 25,> 25,> 25,–,> 25,> 25,> 25,–,–,–,–,–,–,–,–,–,–,–
CN(C)CCNC(=O)c1cccc2c1nc(-c1ccccc1)c1ccccc12,18.4,23.6,18.5,19.6,16.6,20.1,12.5,20.1,15.2,–,–,–,–,–,–,–,–,–,–,–
Cc1cc(C)nc(NS(=O)(=O)c2ccc(Nc3c4ccc(Cl)cc4nc4c(C(=O)Nc5ccc(S(N)(=O)=O)cc5)cccc34)cc2)n1,–,–,> 100,37.7,28.7,27.2,–,43,30.2,–,–,–,–,–,–,–,–,–,–,–
O=C(CCC(=O)C(C(=O)c1ccccc1)c1ccccc1)Nc1cccc(C(F)(F)F)c1 (stereo not given),> 100,> 100,> 100,> 100,> 100,> 100,> 100,> 100,> 100,–,–,–,–,–,–,–,–,–,–,–

Structure (SMILES),TGI (CAKI-1 renal) [µM],TGI (SK-MEL-2 melanoma) [µM],TGI (SF-268 CNS) [µM],TGI (OVCAR-8 ovarian) [µM],TGI (786-0 renal) [µM],TGI (KM12 colon) [µM],TGI (NCI-H226 lung) [µM],TGI (NCI-H23 lung) [µM],TGI (SN12C renal) [µM],GI50 (CAKI-1 renal) [µM],GI50 (SK-MEL-2 melanoma) [µM],GI50 (SF-268 CNS) [µM],GI50 (OVCAR-8 ovarian) [µM],GI50 (786-0 renal) [µM],GI50 (KM12 colon) [µM],GI50 (NCI-H226 lung) [µM],GI50 (NCI-H23 lung) [µM],GI50 (SN12C renal) [µM],GI50 (T-47D breast) [µM],TGI (T-47D breast) [µM]
COc1cc2c3c(c1OC)-c1c(ccc4c1OCO4)CC3(C#N)N(C(=O)c1ccccc1)CC2 (stereo not given),> 100,–,> 100,> 100,> 100,> 100,> 100,> 100,> 100,–,–,–,–,–,–,–,–,–,–,–
Cn1ccnc1C(=O)/C=C/c1ccccc1,19,17.1,–,6.94,16.6,12.5,14.9,25.4,17.3,3.88,3.63,–,2.59,4.34,3.06,3.24,3.76,3,2.78,7.35
O=C1c2ccccc2C(=O)c2c1ccc(C1C(=O)c3ccccc3C1=O)c2-c1c(C2C(=O)c3ccccc3C2=O)ccc2c1C(=O)c1ccccc1C2=O,> 100,> 100,> 100,> 100,> 100,> 100,> 100,–,> 100,–,–,–,–,–,–,–,–,–,–,> 100
N#CSCC1CC(O)(c2ccccc2)CC(c2ccc(F)cc2)O1 (stereo not given),8.5,3.39,3.3,4.37,3.27,3.07,–,5.32,3.47,2.54,1.66,1.65,2.02,1.61,1.63,–,2.02,1.8,1.78,4.98
COc1ccc(Nc2c3ccccc3nc3ccccc23)cc1,10.4,11.3,19.1,16.7,16.7,15,3.84,–,13,1.21,1.29,3.63,1.89,3.85,1.33,1.2,–,2.18,2.37,14.3
COc1cc2c3c(n(CCCI)c(=O)c2cc1OC)-c1cc2c(cc1C3=O)OCO2,> 100,> 100,> 100,81.8,> 100,> 100,7.88,> 100,–,0.454,> 100,1.34,3.16,1.37,7.4,2.05,7.24,–,> 100,> 100
CC1C[C@@H]2C(=O)NC(=O)[C@@H]2c2c1c1ccccc1n2C (stereo not given in full),> 100,> 100,> 100,> 100,> 100,> 100,> 100,> 100,> 100,–,–,–,–,–,–,–,–,–,–,–
COCCCNC(=O)CC(=O)NCCCOC,–,> 100,> 100,> 100,> 100,> 100,–,> 100,> 100,–,–,–,–,–,–,–,–,–,–,–
CCC(=O)c1c(NOC2OC(COC(C)=O)C(OC(C)=O)C(OC(C)=O)C2OC(C)=O)nc(OC)n(C)c1=O (stereo not given),–,> 100,> 100,> 100,> 100,> 100,> 100,> 100,> 100,–,–,–,–,–,–,–,–,–,–,–
COc1cc(OC)c(C2CC=Cc3c(OC)cc(OC)c(OC)c32)cc1OC (stereo not given),> 100,> 100,> 100,> 100,> 100,> 100,> 100,> 100,> 100,–,–,–,–,–,–,–,–,–,–,–
CCC1CCc2nc3sc(C(=O)Nc4cccc(F)c4)c(N)c3cc2C1 (stereo not given),> 100,> 100,> 100,> 100,> 100,–,> 100,> 100,> 100,0.867,> 100,> 100,> 100,0.701,–,> 100,> 100,> 100,> 100,> 100
CC(=O)c1ccc(NC(=O)C(=O)Nn2c(=S)[nH]c3ccccc3c2=O)cc1,> 100,> 100,> 100,> 100,> 100,> 100,> 100,> 100,> 100,–,–,–,–,–,–,–,–,–,–,–
O=[N+]([O-])c1cccc(-c2oc(C=Nc3ccccc3)c([N+](=O)[O-])c2-c2cccc([N+](=O)[O-])c2)c1,–,> 100,> 100,> 100,> 100,> 100,> 100,> 100,–,–,–,–,–,–,–,–,–,–,–,–
CCC1CN2CCc3c([nH]c4ccccc34)C2C[C@@H]1CC(=O)N(C)C (stereo not given in full),–,> 100,> 100,> 100,> 100,> 100,> 100,> 100,> 100,–,–,–,–,–,–,–,–,–,–,–
O=C1C2C3C=CC(C2C(=O)N1COP(=O)(O)O)C1C2C(=O)N(COP(=O)(O)O)C(=O)C2C31 (stereo not given),> 100,> 100,> 100,> 100,> 100,> 100,> 100,> 100,> 100,–,–,–,–,–,–,–,–,–,–,–
COC(=O)c1c(N)n[nH]c1N,> 100,> 100,> 100,> 100,> 100,> 100,–,> 100,> 100,–,–,–,–,–,–,–,–,–,–,–
O=C(Nc1nc2ncn(CCNCc3ccccc3)c2c(=O)[nH]1)c1ccccc1,> 100,> 100,> 100,> 100,> 100,> 100,> 100,–,> 100,–,–,–,–,–,–,–,–,–,–,–
Cc1ccc(S(=O)(=O)OCC23CCC(CC2)C2CC23)cc1 (stereo not given),> 100,–,> 100,> 100,> 100,–,> 100,> 100,> 100,–,–,–,–,–,–,–,–,–,–,–
COC1OC(COCc2ccc(Cl)cc2)C(OCc2ccc(Cl)cc2)C1N=[N+]=[N-] (stereo not given),> 100,> 100,–,> 100,16.8,> 100,> 100,> 100,> 100,–,–,–,–,–,–,–,–,–,–,–
O=[N+]([O-])c1cccc(C2ON2C2CCCCC2)c1 (stereo not given),58.7,62.8,51,32.8,31.2,21,–,45.1,36,–,–,–,–,–,–,–,–,–,–,–
